{"source": "paper PMC5920559", "about": "(Journal of medicinal chemistry, 2017)", "key": {"[1]": {"test_system": "SMN2-luc reporter cell line", "test": "SMN2-luciferase", "type": "cell-based", "settings": "24 h"}, "[2]": {"test_system": "renilla luciferase protein", "test": "Renilla-luc protein stability with cycloheximide", "settings": "with cycloheximide 10 µM, compound 10 µM"}, "SMN-luc fusion": {"molecular_target": "SMN-luc fusion (UniProt P08659+Q16637)", "test": "SMN-luc protein stability with cycloheximide", "type": "cell-based", "settings": "with cycloheximide 10 µM, compound 10 µM"}, "[3]": {"test_system": "polyubiquitinated proteins in HEK293 cells", "test": "polyubiquitinated proteins immunoblot", "type": "cell-based", "settings": "for effect on basal level of polyubiquitinated proteins: 1 and 10 µM"}, "[4]": {"molecular_target": "endogenous SMN protein in HEK293 cells (Homo sapiens, UniProt Q16637)", "sequence (Q16637 whole entry)": "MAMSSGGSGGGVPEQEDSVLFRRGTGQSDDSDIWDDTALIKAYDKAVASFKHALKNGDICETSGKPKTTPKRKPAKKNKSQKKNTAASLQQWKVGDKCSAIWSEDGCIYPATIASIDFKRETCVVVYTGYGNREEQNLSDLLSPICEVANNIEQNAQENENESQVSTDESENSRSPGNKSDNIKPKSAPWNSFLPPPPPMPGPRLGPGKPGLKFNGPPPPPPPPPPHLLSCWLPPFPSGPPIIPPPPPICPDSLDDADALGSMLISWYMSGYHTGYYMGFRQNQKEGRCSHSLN", "test": "pulse-chase SMN protein half-life", "type": "cell-based", "settings": "10 µM"}, "mouse pharmacokinetics": {"test": "mouse pharmacokinetics", "type": "in vivo", "settings": "for Cmax: plasma, plasma Cmax"}, "severe SMA mice (SMNΔ7)": {"test_system": "severe SMA mice (SMNΔ7)", "settings": "severe SMA mice (SMNΔ7) printed for 5; cited from earlier work"}, "[5]": {"test": "plasma protein binding, mouse plasma", "type": "in vitro ADME"}, "58 kinase panel": {"test_system": "58 kinase panel", "test": "58 kinase panel", "type": "biochemical", "settings": "10 µM"}, "[6]": {"test_system": "p53 and p21-Cip1 in HEK293 cells", "test": "levels of short-lived proteins p53 and p21", "type": "cell-based", "settings": "alone or after cycloheximide"}, "[7]": {"test": "kinetic solubility at pH 7.4", "type": "physicochemical", "settings": "aqueous medium (buffer not named)"}, "[8]": {"test_system": "MBP-HPV-16 E6 mediated degradation of p53", "test": "HPV16 E6 mediated p53 in vitro degradation assay", "type": "biochemical", "settings": "preincubation of rabbit reticulocyte lysates, 30 min"}, "acid stability in HCl": {"test": "acid stability in HCl", "type": "physicochemical", "settings": "0.1 and 1 N HCL, 37 °C, each time point 1, 2, 4, 6, 24 h, LCMS"}, "SMN2 reporter cells": {"test_system": "SMN2 reporter cells", "test": "constant ratio combination experiment in SMN2 reporter cells", "type": "cell-based"}, "hERG": {"molecular_target": "hERG (Homo sapiens, UniProt Q12809)", "sequence (Q12809 whole entry)": "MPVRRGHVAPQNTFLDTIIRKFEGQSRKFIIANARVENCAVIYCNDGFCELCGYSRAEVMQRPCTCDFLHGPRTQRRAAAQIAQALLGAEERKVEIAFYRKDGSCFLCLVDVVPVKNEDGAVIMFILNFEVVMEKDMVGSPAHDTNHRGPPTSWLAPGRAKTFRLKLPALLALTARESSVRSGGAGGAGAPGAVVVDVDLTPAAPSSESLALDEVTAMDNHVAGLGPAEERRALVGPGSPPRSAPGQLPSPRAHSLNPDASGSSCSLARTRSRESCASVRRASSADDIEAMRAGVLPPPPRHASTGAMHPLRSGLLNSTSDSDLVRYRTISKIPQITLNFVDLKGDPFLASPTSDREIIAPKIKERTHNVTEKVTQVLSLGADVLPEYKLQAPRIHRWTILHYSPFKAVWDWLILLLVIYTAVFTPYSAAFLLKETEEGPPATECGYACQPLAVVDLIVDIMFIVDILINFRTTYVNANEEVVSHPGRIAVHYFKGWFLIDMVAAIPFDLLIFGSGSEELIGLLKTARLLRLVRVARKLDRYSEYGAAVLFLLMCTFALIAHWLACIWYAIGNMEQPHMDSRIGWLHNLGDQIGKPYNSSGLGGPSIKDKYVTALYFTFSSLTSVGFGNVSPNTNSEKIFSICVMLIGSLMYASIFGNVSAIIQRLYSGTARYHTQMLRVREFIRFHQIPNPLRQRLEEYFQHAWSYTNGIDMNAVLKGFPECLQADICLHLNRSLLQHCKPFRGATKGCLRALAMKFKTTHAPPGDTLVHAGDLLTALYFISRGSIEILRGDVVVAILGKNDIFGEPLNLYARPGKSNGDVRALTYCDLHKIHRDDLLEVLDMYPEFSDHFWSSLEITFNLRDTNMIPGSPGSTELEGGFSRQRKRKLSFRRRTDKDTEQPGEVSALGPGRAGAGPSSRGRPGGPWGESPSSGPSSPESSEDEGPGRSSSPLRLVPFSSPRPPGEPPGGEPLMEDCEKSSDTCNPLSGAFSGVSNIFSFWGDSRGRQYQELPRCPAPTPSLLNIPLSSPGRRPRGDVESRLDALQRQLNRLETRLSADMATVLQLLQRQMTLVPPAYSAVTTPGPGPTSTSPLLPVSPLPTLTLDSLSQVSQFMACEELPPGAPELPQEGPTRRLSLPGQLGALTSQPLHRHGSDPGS", "test": "hERG safety profiling", "settings": "10 µM"}, "SV40 reporter cells": {"test_system": "SV40 reporter cells", "test": "SV40 promoter luciferase counterscreen", "type": "cell-based"}, "[9]": {"test": "plasma protein binding, human plasma", "type": "in vitro ADME"}, "recombinant luciferase": {"molecular_target": "recombinant luciferase (Photinus pyralis, UniProt P08659)", "sequence (P08659 whole entry)": "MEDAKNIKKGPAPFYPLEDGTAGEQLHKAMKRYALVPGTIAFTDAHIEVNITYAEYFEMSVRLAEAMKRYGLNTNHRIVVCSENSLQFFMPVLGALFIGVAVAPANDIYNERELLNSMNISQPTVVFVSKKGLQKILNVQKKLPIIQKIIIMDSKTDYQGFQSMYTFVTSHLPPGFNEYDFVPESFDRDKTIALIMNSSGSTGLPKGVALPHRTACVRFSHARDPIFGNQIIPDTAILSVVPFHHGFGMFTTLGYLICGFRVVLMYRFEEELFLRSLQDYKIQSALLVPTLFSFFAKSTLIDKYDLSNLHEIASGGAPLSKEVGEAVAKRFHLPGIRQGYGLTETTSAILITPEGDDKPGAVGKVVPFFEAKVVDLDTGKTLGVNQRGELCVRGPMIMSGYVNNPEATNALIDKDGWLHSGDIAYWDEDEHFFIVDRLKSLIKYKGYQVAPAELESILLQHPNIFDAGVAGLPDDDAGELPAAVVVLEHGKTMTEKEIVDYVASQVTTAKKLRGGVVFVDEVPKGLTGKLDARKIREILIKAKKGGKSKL", "test": "recombinant luciferase activity", "type": "biochemical"}, "[10]": {"test_system": "64 target broad panel (e.g., GPCRs and ion channels)", "test": "64 target broad panel screen", "settings": "10 µM"}, "[11]": {"test_system": "LC3-I/II and p62 in HEK293 cells", "test": "autophagy markers immunoblot", "type": "cell-based", "settings": "8 h"}, "SMN-luciferase mRNA [12]": {"test_system": "SMN-luciferase mRNA", "test": "qRT-PCR of SMN-luciferase mRNA", "type": "cell-based", "settings": "1, 10 µM, 24 h"}, "SH5Y5Y cells": {"test_system": "SH5Y5Y cells", "test": "cell viability", "type": "cell-based", "settings": "up to 100× its EC50, 48 h"}, "SMN-luciferase mRNA [13]": {"test_system": "SMN-luciferase mRNA", "settings": "cited from earlier work"}, "[14]": {"test_system": "human SMN protein in 3813T fibroblasts", "settings": "cited from earlier work"}}, "note": "Where two headings read alike, the source gives them in different places. Peptide text beside a SMILES is read from it. * marks the point of attachment. Cbz = O=C(OCc1ccccc1)*"}
{"smiles": "O=C(Nc1ncc(C2CCC2)s1)c1ccc(F)c(Cl)c1", "note": "[Compound 26, 3-Chloro-N-(5-cyclobutylthiazol-2-yl)-4-fluorobenzamide]", "values": [{"measurement": "Emax", "setting": "[1]; read-out: % Activation", "value": "100 ± 16", "unit": "%"}]}
{"smiles": "O=C(CCCCCCC(=O)Nc1ccccc1)NO", "note": "[SAHA, suberoylanilide hydroxamic acid, reference compound]", "values": [{"measurement": "stabilization of renilla luciferase protein", "setting": "[2]", "value": "Neither"}, {"measurement": "stabilization of SMN-luc fusion", "setting": "SMN-luc fusion", "value": "Neither"}]}
{"smiles": "CC(C)C[C@@H](C=O)NC(=O)[C@H](CC(C)C)NC(=O)[C@H](CC(C)C)NC(=O)OCc1ccccc1", "note": "[MG-132] (Cbz-Leu-Leu-Leu-aldehyde)", "values": [{"measurement": "effect on basal level of polyubiquitinated proteins", "setting": "[3]", "value": "increased"}, {"measurement": "inhibition of cycloheximide-induced reduction of polyubiquitinated proteins", "setting": "[3]; 2 h pretreatment then cycloheximide 10 µM", "value": "inhibited"}, {"measurement": "effect on SMN protein half-life", "setting": "[4]", "value": "increased"}]}
{"smiles": "CC(C)c1cc(C(=O)Nc2ccccn2)no1", "note": "[Compound 4m, 5-Isopropyl-N-(pyridin-2-yl)isoxazole-3-carboxamide]", "values": [{"measurement": "brain Cmax", "setting": "mouse pharmacokinetics; 20 mpk ip, 20 mg/kg", "value": 6, "unit": "ng/mL"}, {"measurement": "plasma Cmax", "setting": "mouse pharmacokinetics; 20 mpk ip, 20 mg/kg", "value": 3, "unit": "ng/mL"}, {"measurement": "plasma and brain levels after 30 min", "setting": "mouse pharmacokinetics; ip 20 mg/kg", "value": "below the levels of detection"}]}
{"smiles": "COc1cc2c(c(OC)c1OC)C(c1cc(Br)ccc1F)CC(=O)N2", "note": "(stereo not drawn) [Compound 5, reference compound]", "values": [{"measurement": "stabilization of renilla luciferase protein", "setting": "[2]", "value": "Neither"}, {"measurement": "stabilization of SMN-luc fusion", "setting": "SMN-luc fusion", "value": "Neither"}, {"measurement": "in vivo activity", "setting": "severe SMA mice (SMNΔ7)", "value": "increases SMN protein and the survival"}]}
{"smiles": "O=C(Nc1ncc(C2(O)CCC2)s1)c1ccc(F)c(Cl)c1", "note": "[Compound 27, 3-Chloro-4-fluoro-N-(5-(1-hydroxycyclobutyl)thiazol-2-yl)-benzamide]", "values": [{"measurement": "stabilization of SMN-luc fusion", "setting": "SMN-luc fusion", "value": "stabilized"}, {"measurement": "free fraction in mouse plasma", "setting": "[5]", "value": 4.7, "unit": "% free"}, {"measurement": "inhibition in 58 kinase panel", "setting": "58 kinase panel", "value": "< 50", "unit": "%"}, {"measurement": "effect on cellular levels of p53 and p21-Cip1", "setting": "[6]", "value": "did not alter"}, {"measurement": "solubility", "setting": "[7]", "value": "~10", "unit": "µg/mL"}, {"measurement": "inhibition of MBP-HPV-16 E6 mediated degradation of p53", "setting": "[8]", "value": "no inhibition"}, {"measurement": "degradation in acid", "setting": "acid stability in HCl", "value": "less than 5%"}, {"measurement": "SMN2-luc level on combined exposure with 4", "setting": "SMN2 reporter cells; in combination with 4, 24 h", "value": "did not result in additive or above additive levels"}, {"measurement": "SMN2-luc level on combined exposure with 5", "setting": "SMN2 reporter cells; in combination with transcriptional activator 5, 24 h", "value": "an activation above the theoretical additive was observed"}, {"measurement": "inhibition of hERG activity", "setting": "hERG", "value": "< 50", "unit": "%"}, {"measurement": "effect on luc levels expressed from a minimal SV40 promoter", "setting": "SV40 reporter cells", "value": "minimal effects"}, {"measurement": "free fraction in human plasma", "setting": "[9]", "value": 3.5, "unit": "% free"}, {"measurement": "Cmax", "setting": "mouse pharmacokinetics; ip, 20 mg/kg, ip 20 mg/kg", "value": 23, "unit": "µM"}, {"measurement": "Cmax", "setting": "mouse pharmacokinetics; po, 20 mg/kg, adult mice, orally 20 mg/kg", "value": 0.9, "unit": "µM"}, {"measurement": "effect on basal level of polyubiquitinated proteins", "setting": "[3]", "value": "no effect"}, {"measurement": "effect on recombinant luciferase protein in vitro", "setting": "recombinant luciferase", "value": "minimal effects"}, {"measurement": "inhibition of 64 other targets", "setting": "[10]", "value": "< 50", "unit": "%"}, {"measurement": "effect on p62 and LC-3 II protein levels", "setting": "[11]", "value": "did not alter"}, {"measurement": "effect on SMN mRNA expression and exon 7 inclusion", "setting": "SMN-luciferase mRNA [12]", "value": "did not alter SMN mRNA expression or exon 7 inclusion"}, {"measurement": "effect on viability of SH5Y5Y cells", "setting": "SH5Y5Y cells", "value": "no effect"}]}
{"smiles": "CCN(CC)CCCC(C)Nc1ccnc2cc(Cl)ccc12", "note": "(stereo not drawn) [Chloroquine, reference compound]", "values": [{"measurement": "effect on p62 and LC-3 II protein levels", "setting": "[11]", "value": "increased"}]}
{"smiles": "CC(C)c1cc(C(=O)Nc2ccc(F)c(Cl)c2)no1", "note": "[Compound 4, N-(3-Chloro-4-fluorophenyl)-5-isopropylisoxazole-3-carboxamide]", "values": [{"measurement": "EC50", "setting": "[1]", "value": 1.8, "unit": "µM"}, {"measurement": "stabilization of SMN-luc fusion", "setting": "SMN-luc fusion", "value": "stabilized"}, {"measurement": "effect on SMN mRNA expression and exon 7 inclusion", "setting": "SMN-luciferase mRNA [13]", "value": "did not alter SMN mRNA expression or exon 7 inclusion"}, {"measurement": "effect on SMN protein half-life", "setting": "[4]", "value": "increased"}, {"measurement": "in vivo activity", "setting": "severe SMA mice (SMNΔ7)", "value": "inactive"}, {"measurement": "SMN expression in SMA-derived fibroblast", "setting": "[14]", "value": "promoted increases"}]}
